Data published in patent US20260258084A1, “New Peptides as Selective IL-23 Receptor Antagonists” (Sanofi, priority 2022, published 2026).
Converted amounts (≈) assume the structure as drawn. Like-named read-outs stand apart in the source and are kept apart here. Starred links: 1 amine or outer side, 2 acyl side, 3 side chain; linkers in the order of their positions; H or OH if unused. Positions of bridges follow the written chain, without caps; N, C: chain ends. Non-standard residues stand in square brackets, D forms with d. Residues, ends and D or L forms follow the SMILES beside them. No end group written: not given here. Yde = (2S)-2-amino-3-[4-[2-(dimethylamino)ethoxy]phenyl]propanoic acid, CN(C)CCOc1ccc(C[C@H](N[*:1])C(=O)[*:2])cc1; NdmK = (2S)-6-amino-2-(dimethylamino)hexanoic acid, CN(C)[C@@H](CCCCN[*:3])C(=O)[*:2]; Trp(7-Me) = Cc1cccc2c(C[C@H](N)C(=O)O)c[nH]c12; Tyr(Me) = COc1ccc(C[C@H](N[*:1])C(=O)[*:2])cc1; αMeLys(Me2) = CN(C)CCCC[C@](C)(N)C(=O)O; 2Nal = N[C@@H](Cc1ccc2ccccc2c1)C(=O)O; εLys = N[C@@H](CCCCN[*:1])C(=O)[*:2]; NMe5Ava = CN(CCCCC(=O)[*:2])[*:1]; 3Pal = N[C@@H](Cc1cccnc1)C(=O)O; NMeN = CN[C@@H](CC(N)=O)C(=O)O; αMeL = CC(C)C[C@](C)(N)C(=O)O; Thp = NC1(C(=O)O)CCOCC1; Aib = CC(C)(N)C(=O)O; Ahx = NCCCCCC(=O)O; Ava = NCCCCC(=O)O; Sar = CNCC(=O)O

What was measured:
[1] = target: T1, human interleukin-23 receptor (recombinant human IL-23R-Fc chimera) (Homo sapiens, UniProt Q5VWK5); assay: Human ELISA IL23/IL23R (assay for specific human IL23R antagonists); assay type: binding; settings: Table 10; read-out: Human ELISA IL23/IL23R IC50
T1 construct: Fc (IgG Fc fusion)
Procedure, shortened: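 Competition format: peptide dilutions compete for IL23R-Fc chimera (0.1 μg/ml final, 60 min, room temperature) binding to immobilized human IL23 coated at […] overnight at 4 °C. Read-out is fluorogenic HRP signal from goat anti-hu-IgG1 detecting captured receptor.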

[2] = tested on: IL-23 induced STAT3 signaling in HEK-Blue™ IL-23 cells; assay: IL-23 induced STAT3 signaling in HEK-Blue IL-23 cells (SEAP reporter); assay type: cell-based; settings: human IL23 0.25 ng/ml, read-out: pSTAT3
Procedure, shortened: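 Secreted SEAP, read at OD 620-655 nm after 45 min QUANTI-Blue development, reports STAT3 activation. Beforehand, cells were exposed to peptide dilutions for 60 min at 37 °C and then to 0.25 ng/ml final human IL-23 overnight, at 10,000 cells/well.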

[3] = Solubility testing of peptides at different pH; assay type: physicochemical; settings: target concentration 1 mg/ml, 2 hours agitation
Procedure, shortened: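 Four buffers were used: 50 mM HCl pH 1.2 and 50 mM phosphate at pH 6.5, 7.4 and 9.0, each receiving dried-down compound at a 1 mg/mL target. After 2 h gentle shaking and 0.45 μm filtration, UV peak areas were compared with a DMSO standard curve of known concentration, allowing for extinction coefficients.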

[4] = Chemical stability assessment of peptides (relative purity loss); assay type: physicochemical; settings: 24 hours at 37° C.; for Chemical stability (relative purity loss) Buffer pH 1.2: 50 mM HCl pH 1.2 + acetonitrile (1:1); for Chemical stability (relative purity loss) Buffer pH 7.4: 50 mM phosphate buffer pH 7.4 + acetonitrile (1:1)
Procedure, shortened: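 Peptide solutions at 1 mg/ml (purity-corrected) in 1:1 acetonitrile with 50 mM HCl pH 1.2, or 50 mM phosphate pH 6.5 or pH 7.4, held 24 hours at 2° C. and 37° C. Supernatants analysed by UHPLC-UV; relative purity loss taken as percent drop in peak-area purity from 0 to 24 hours at 37° C.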

[5] = tested on: T2, Pepsin; assay: Protease stability in simulated gastric fluid (Pepsin-SGF, FaSSGF); assay type: in vitro ADME; settings: simulated gastric fluid with pepsin (Pepsin-SGF), 60 min, 1 μM peptide, 37° C., read-out: FaSSGF 60 (min), remaining percent of peptide
T2 construct: purchased Merck Millipore
Procedure, shortened: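 LCMS/MS peak areas, normalised to the time-0 sample as 100%, give percent remaining. Conditions: 37° C incubation of 1 μM final peptide in simulated gastric fluid with pepsin; ethanol/0.1% HCOOH quench at 0, 60, 120, 240 min.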

[6] = tested on: Pancreatin; assay: Protease stability in simulated intestinal fluid (Pancreatin-SIF, FaSSIF); assay type: in vitro ADME; settings: 1 μM peptide, 37° C.; for remaining at 1 h, 1 µM: 60 min, read-out: FaSSIF 60 (min), remaining percent of peptide; for remaining at 2 h, 1 µM: 120 min, read-out: FaSSIF 120 (min), remaining percent of peptide; for remaining at 4 h, 1 µM: 240 min, read-out: FaSSIF 240 (min), remaining percent of peptide
Procedure, shortened: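 LC-MS/MS peak areas at 0, 60, 120 and 240 min, normalised to time 0 as 100%, give percent remaining. Reactions used 1 μM final peptide at 37° C in pancreatin-SIF (1 mg pancreatin in 10 mL SIF concentrate) and were stopped with ethanol containing 0.1% HCOOH.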

[7] = target: T3, IL-23 receptor on the surface of HEK-Blue IL-23 cells (UniProt Q5VWK5 24-629, limits assumed); assay: cell-based or functional assay
T3 sequence (looked up): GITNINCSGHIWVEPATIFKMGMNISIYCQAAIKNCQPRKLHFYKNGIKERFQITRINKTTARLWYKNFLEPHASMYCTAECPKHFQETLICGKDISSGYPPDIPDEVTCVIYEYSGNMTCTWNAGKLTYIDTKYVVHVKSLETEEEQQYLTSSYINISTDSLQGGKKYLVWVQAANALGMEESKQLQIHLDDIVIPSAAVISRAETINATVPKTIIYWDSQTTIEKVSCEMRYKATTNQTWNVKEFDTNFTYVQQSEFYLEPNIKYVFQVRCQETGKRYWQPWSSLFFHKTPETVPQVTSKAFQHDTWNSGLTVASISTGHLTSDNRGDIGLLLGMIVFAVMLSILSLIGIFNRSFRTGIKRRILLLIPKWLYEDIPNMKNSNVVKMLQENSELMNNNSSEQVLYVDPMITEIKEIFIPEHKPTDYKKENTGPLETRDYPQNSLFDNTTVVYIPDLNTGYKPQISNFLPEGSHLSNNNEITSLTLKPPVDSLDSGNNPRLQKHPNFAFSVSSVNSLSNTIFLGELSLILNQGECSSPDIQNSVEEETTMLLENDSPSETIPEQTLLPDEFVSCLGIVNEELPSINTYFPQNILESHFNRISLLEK

[8] = target: T4, recombinant human IL-23R-Fc chimera (human, UniProt Q5VWK5 24-353); assay: competition ELISA: IL-23R-Fc binding to coated human IL23
T4 construct: used at 0.1 µg/ml in the ELISA; not shown: Fc part of the chimera; detected with goat anti-hu-IgG1-HRP a
T4 sequence (looked up): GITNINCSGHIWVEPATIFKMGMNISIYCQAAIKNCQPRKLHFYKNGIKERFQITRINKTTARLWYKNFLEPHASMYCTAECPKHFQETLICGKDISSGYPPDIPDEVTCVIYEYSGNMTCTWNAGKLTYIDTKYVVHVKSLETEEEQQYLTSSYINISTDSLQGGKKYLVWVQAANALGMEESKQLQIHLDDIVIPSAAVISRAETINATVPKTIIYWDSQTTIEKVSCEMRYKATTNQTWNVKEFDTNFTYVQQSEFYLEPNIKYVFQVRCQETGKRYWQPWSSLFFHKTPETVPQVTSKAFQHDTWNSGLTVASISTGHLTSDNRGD
Description: Antagonism of compounds for human interleukin-23 receptor antagonists, was determined by an ELISA assay.
A 384-well plate was coated with 50 μl/well of human IL23 at a final concentration of […] and incubated overnight at 4° C. The wells were washed 3 times with 80 μl wash buffer and blocked with 80 μl blocking buffer for 60 minutes at room temperature and washed again. 20 μl of serially diluted test peptides was added to each well and subsequently 20 μl of recombinant human IL-23R-Fc chimera at final concentration of 0.1 μg/ml. The plate was incubated for 60 minutes at room temperature. After the wells were washed, bound IL23R-Fc was detected with goat anti-hu-IgG1-HRP antibody. Signals were visualized with QuantaBlu Fluorogenic Peroxidase Substrate.

[9] = 50 mM HCl buffer, 50 mM HCl pH 1.2, read-out: Solubility Buffer pH 1.2
[10] = 50 mM phosphate buffer pH 6.5, read-out: Solubility Buffer pH 6.5
[11] = 50 mM phosphate buffer pH 7.4, read-out: Solubility Buffer pH 7.4

## COc1ccc(C[C@@H]2NC(=O)[C@@H]3CSSC[C@H](NC(=O)CCCCCNC(=O)C[C@@H](C(=O)N[C@@H](CC(N)=O)C(=O)N[C@@H](CC(N)=O)C(N)=O)NC(=O)C(C)(C)NC(=O)[C@H](Cc4ccc5ccccc5c4)NC2=O)C(=O)N(C)[C@@H](CC(N)=O)C(=O)N[C@@H]([C@@H](C)O)C(=O)N[C@@H](Cc2c[nH]c4ccccc24)C(=O)N[C@@H](CCC(N)=O)C(=O)N3)cc1 [compound 6] ([Ahx]C[NMeN]TWQCY(Me)[2Nal][Aib]DNN-NH2; disulfide 2-7; lactam N-11)
[1]
  IC50: 680 pM
[2]
  IC50: 72900 pM
[3]; [9]
  solubility at 2 h: 40 µg/mL (≈ 24.1 µM)
[3]; [10]
  solubility at 2 h: 30 µg/mL (≈ 18 µM)
[3]; [11]
  solubility at 2 h: 20 µg/mL (≈ 12 µM)
[4]
  Chemical stability (relative purity loss) Buffer pH 1.2: 27.4%
  Chemical stability (relative purity loss) Buffer pH 7.4: 3.1%
[5]
  remaining at 1 h, 1 µM: 1%
[6]
  remaining at 1 h, 1 µM: 78%
  remaining at 2 h, 1 µM: 77%
  remaining at 4 h, 1 µM: 51%

## COc1ccc(C[C@@H]2NC(=O)[C@@H]3CSSC[C@H](NC(=O)CCCCCNC(=O)CC[C@@H](C(=O)N[C@@H](CC(N)=O)C(=O)N[C@@H](CC(N)=O)C(N)=O)NC(=O)C(C)(C)NC(=O)[C@H](Cc4ccc5ccccc5c4)NC2=O)C(=O)N[C@@H](CC(N)=O)C(=O)N[C@@H]([C@@H](C)O)C(=O)N[C@@H](Cc2c[nH]c4ccccc24)C(=O)N[C@@H](CCC(N)=O)C(=O)N3)cc1 [compound 2] ([Ahx]CNTWQCY(Me)[2Nal][Aib]ENN-NH2; disulfide 2-7; lactam N-11)
[1]
  IC50: 600 pM
[2]
  IC50: 54000 pM
[3]; [9]
  solubility at 2 h: 100 µg/mL (≈ 60.1 µM)
[3]; [10]
  solubility at 2 h: < 50 µg/mL
[3]; [11]
  solubility at 2 h: < 50 µg/mL
[4]
  Chemical stability (relative purity loss) Buffer pH 1.2: 27.5%
  Chemical stability (relative purity loss) Buffer pH 7.4: 0.8%
[4]; 50 mM phosphate buffer pH 6.5 + acetonitrile (1:1)
  Chemical stability (relative purity loss) Buffer pH 6.5: 0.1%
[5]
  remaining at 1 h, 1 µM: 1%
[6]
  remaining at 1 h, 1 µM: 71%
  remaining at 2 h, 1 µM: 71%
  remaining at 4 h, 1 µM: 47%

B1: Compound of SEQ ID NO: 35 (peptide)
peptide: [Ava]CNT[Trp(7-Me)]K(Ac)C[Yde][2Nal][Thp]EN[3Pal][Sar]-NH2
modifications: lactam N-11; disulfide 2-7
SMILES: CC(=O)NCCCC[C@@H]1NC(=O)[C@H](Cc2c[nH]c3c(C)cccc23)NC(=O)[C@H]([C@@H](C)O)NC(=O)[C@H](CC(N)=O)NC(=O)[C@@H]2CSSC[C@H](NC1=O)C(=O)N[C@@H](Cc1ccc(OCCN(C)C)cc1)C(=O)N[C@@H](Cc1ccc3ccccc3c1)C(=O)NC1(CCOCC1)C(=O)N[C@H](C(=O)N[C@@H](CC(N)=O)C(=O)N[C@@H](Cc1cccnc1)C(=O)N(C)CC(N)=O)CCC(=O)NCCCCC(=O)N2
[7]
  pSTAT3 (nM): 0.34 nM
[8]
  IC50: 340 pM

## [NMe5Ava]C[NdmK][Trp(7-Me)]K(Ac)C[Yde][2Nal][αMeLys(Me2)]EN[3Pal][Sar]-NH2 (lactam N-10; disulfide 2-6) [Compound of SEQ ID NO: 61]
[7]
  pSTAT3 (nM): 4.4 nM
[8]
  IC50: 360 pM

B2: Compound of SEQ ID NO: 28 (peptide)
peptide: [Ava]C[εLys](Ac)WQC[Yde][2Nal][αMeL]ENN-NH2
modifications: lactam N-10; disulfide 2-6; also: Cys2 carboxyl bonded to Lys3 epsilon-NH2 (isopeptide), Lys3 alpha-N acetylated
[7]
  pSTAT3 (nM): 4.11 nM
[8]
  IC50: 390 pM

B3: Compound of SEQ ID NO: 7 (peptide)
peptide: K(Ac)CNTWQC[Tyr(Me)][2Nal][Aib]DNN-NH2
modifications: lactam (positions not given here); disulfide 2-7; not fully specified (bridges); printed as K[Ac](§1)-C(@2)-N-T-W-Q-C(@2)-Yme-Nal-Aib-D(§1)-N—N—NH2; also: K1 acetylated, whether acetyl is on alpha-N or epsilon-N (lactam via the other amine) not settled
notes: §1 lactam bridge; @2 disulfide bridge
[7]
  pSTAT3 (nM): 25 nM
[8]
  IC50: 600 pM

## XXNTWQXXXXENN (not fully specified; Apt(§1)-Pen(@2)-N-T-W-Q-Pen(@2)-Yae-Nal-Thp-E(§1)-N-N-NH2) [Pen peptide compound of SEQ ID NO: 163]
[8]
  IC50: 163000 pM

B4: Compound of SEQ ID NO: 65 (peptide)
peptide: [Ava]CNT[Trp(7-Me)]K(Ac)C[Yde][2Nal][αMeL]EN[3Pal][Sar]-NH2
modifications: lactam N-11; disulfide 2-7
SMILES: CC(=O)NCCCC[C@@H]1NC(=O)[C@H](Cc2c[nH]c3c(C)cccc23)NC(=O)[C@H]([C@@H](C)O)NC(=O)[C@H](CC(N)=O)NC(=O)[C@@H]2CSSC[C@H](NC1=O)C(=O)N[C@@H](Cc1ccc(OCCN(C)C)cc1)C(=O)N[C@@H](Cc1ccc3ccccc3c1)C(=O)N[C@@](C)(CC(C)C)C(=O)N[C@H](C(=O)N[C@@H](CC(N)=O)C(=O)N[C@@H](Cc1cccnc1)C(=O)N(C)CC(N)=O)CCC(=O)NCCCCC(=O)N2
[7]
  pSTAT3 (nM): 0.23 nM
[8]
  IC50: 370 pM
